Publication PMC6152747, “Lipophilicity Studies on Thiosemicarbazide Derivatives” (Molecules : A Journal of Synthetic Chemistry and Natural …, 2017)

Legend:
physchem = assay type: physicochemical; conditions: for – S of standards: slope of Eq. 1; for −S: slope of logk vs. methanol concentration (Eq. 1); for chromatographic logP: read-out: logPHPLC
Experimental: Methanolic solutions (5 μL, 0.1%) of selected samples were applied to the chromatographic column (RP-18 Waters Symmetry, 15 cm length, 4.6 mm i.d., 5 μm particle size) by use of an autosampler Hitachi L-2200 (LaChrom Elite, Hitachi-Merck, Darmstadt, Germany). The mobile phase, consisting of a methanol and water mixture, was degassed by use of the built-in membrane degasser. […] Chromatograms were detected at 254 nm and the temperature of the column was 25 °C. All experiments were repeated in triplicate and the final results were taken to be the arithmetic means. Dead time was measured by use of uracil (Calbiochem. Merck, Darmstadt, Germany). All experiments were performed at ambient temperature.

S. aureus DNA gyrase = conditions: previously tested, read-out: Inhibitory Potency IC50 DNA Gyrase; cited from earlier work
[1] = target: S. aureus topoisomerase IV (topo IV); conditions: previously tested, cited from earlier work; for IC50: read-out: Inhibitory Potency IC50 Topo IV
[2] = parameters: method as in earlier work; conditions: octanol–water; OECD guidelines; cited from earlier work
[3] = same chromatographic conditions as compounds 1–17
[4] = Table 1, retention factor extrapolated to pure water (Eq. 1), methanol 45–75%, RP-18, 25 °C
[5] = Table 2, retention factor extrapolated to pure water
[6] = from logkw by calibration curve with seven OECD standards (Eq. 3)

Structure (SMILES) | logkw (physchem; [4]) | −S (physchem; Table 1) | logkw (physchem; [5]) | chromatographic logP (physchem; [6]) | also measured
Oc1ccc2ccccc2n1 [2-hydroxyquinoline, reference compound] |  |  |  |  | logkw of standards (physchem; Table S2, parameters of Eq. 1): 1.4879; – S of standards (physchem; Table S2): 2.9059; logkw of standards (physchem; [3]): 1.3682
Cc1occc1C(=O)NNC(=S)NC(=O)c1ccccc1 [Compound 1] | 2.9992 | 4.3720 | 2.9992 | 3.05 | IC50 (S. aureus DNA gyrase): 14.6 µM
O=C(NC(=S)NNC(=O)c1ccc[nH]1)c1ccccc1 [Compound 2] | 2.5105 | 4.1416 | 2.5105 | 2.53 | IC50 [1]: 41 µM; Inhibitory Potency IC50 Topo IV [1]: anti-topo IV activity; IC50 (S. aureus DNA gyrase): 93.3 µM
O=C(NNC(=S)NC(=O)c1ccccc1Cl)c1ccccc1O [Compound 3] | 4.2230 | 6.1166 |  | 4.36 | 
COc1cccc(C(=O)NNC(=S)NC(=O)c2ccccc2)c1 [Compound 4] | 3.3130 | 4.8205 | 3.3130 | 3.38 | 
COc1cccc(C(=O)NNC(=S)NC(=O)c2ccccc2C)c1 [Compound 5] | 3.4487 | 4.8562 | 3.4487 | 3.53 | 
COc1cccc(C(=O)NNC(=S)NC(=O)c2cccc(C)c2)c1 [Compound 6] | 3.7864 | 5.1137 | 3.7864 | 3.89 | 
COc1cccc(C(=O)NNC(=S)NC(=O)c2ccccc2Cl)c1 [Compound 7] | 3.8283 | 5.6579 | 3.8283 | 3.93 | 
COc1cccc(C(=O)NNC(=S)NC(=O)c2cccc(Cl)c2)c1 [Compound 8] | 3.7422 | 5.0742 | 3.7422 | 3.84 | 
COc1cccc(C(=O)NNC(=S)NC(=O)c2ccc(Cl)cc2)c1 [Compound 9] | 3.9422 | 5.3417 | 3.9422 | 4.05 | 
O=C(CS(=O)(=O)c1ccccc1)NNC(=S)NC(=O)c1ccccc1Cl [Compound 10] | 3.2498 | 5.7291 | 3.2498 | 3.31 | 
O=C(NNC(=S)Nc1ccc(Cl)cc1)c1ccccc1O [Compound 11] | 3.3324 | 4.8778 | 3.3324 |  | logPHPLC (physchem; [6]): 3.4026
O=C(NNC(=S)Nc1ccccc1)c1ccccc1O [Compound 12] | 2.4813 | 4.1962 | 2.4813 | 2.49 | 
O=C(NNC(=S)NC1CCCCC1)c1ccccc1O [Compound 13] | 3.2386 | 4.7076 | 3.2386 | 3.3 | 
O=C(NNC(=S)Nc1ccc(Cl)c(Cl)c1)c1ccccc1O [Compound 14] | 4.1453 | 5.6538 | 4.1453 | 4.27 | 
Cc1ccc(NC(=S)NNC(=O)c2ccccc2O)cc1Cl [Compound 15] | 3.9451 | 5.5432 | 3.9451 | 4.06 | 
O=C(NNC(=S)Nc1ccccc1)c1cccc(O)c1 [Compound 16] | 2.0687 | 4.1968 | 2.0687 | 2.05 | 

Structure (SMILES) | logkw (physchem; [4]) | −S (physchem; Table 1) | logkw (physchem; [5]) | chromatographic logP (physchem; [6]) | also measured
O=C(NNC(=S)NC1CCCCC1)c1cccc(O)c1 [Compound 17] | 2.7583 | 4.3297 | 2.7583 | 2.79 | 
O=C(NC(=S)NNC(=O)c1cc2ccccc2[nH]1)c1ccccc1 [Compound 18] |  |  |  |  | IC50 [1]: 14 µM; Inhibitory Potency IC50 Topo IV [1]: anti-topo IV activity
O=C(NC(=S)NNC(=O)c1cccs1)c1ccccc1 [Compound 19] |  |  |  |  | IC50 (S. aureus DNA gyrase): 83.6 µM
Cc1nc[nH]c1C(=O)NNC(=S)NC(=O)c1ccccc1 [Compound 20] |  |  |  |  | IC50 [1]: 90 µM; Inhibitory Potency IC50 Topo IV [1]: anti-topo IV activity
O=C(NNC(=S)Nc1ccc([N+](=O)[O-])cc1)c1cc2ccccc2[nH]1 [Compound 21] |  |  |  |  | IC50 [1]: 14 µM
O=C(NNC(=S)Nc1ccccc1F)c1cc2ccccc2[nH]1 [Compound 22] |  |  |  |  | IC50 [1]: 63.5 µM; Inhibitory Potency IC50 Topo IV [1]: weak inhibitory potency
O=C(NNC(=S)Nc1ccc(F)cc1)c1cc2ccccc2[nH]1 [Compound 23] |  |  |  |  | IC50 [1]: 267 µM; Inhibitory Potency IC50 Topo IV [1]: weak inhibitory potency; IC50 (S. aureus DNA gyrase): 128 µM
O=C(NNC(=S)Nc1ccc(F)cc1F)c1cc2ccccc2[nH]1 [Compound 24] |  |  |  |  | IC50 [1]: 295 µM; Inhibitory Potency IC50 Topo IV [1]: weak inhibitory potency
O=C(NNC(=S)Nc1ccc([N+](=O)[O-])cc1)c1ccc[nH]1 [Compound 27] |  |  |  |  | IC50 (S. aureus DNA gyrase): 64.2 µM
Cc1nnsc1C(=O)NNC(=S)Nc1ccc(Br)cc1 [Compound 28] |  |  |  |  | IC50 [1]: 403 µM
Nc1ccccc1 [aniline, reference compound] |  |  |  |  | logkw of standards (physchem; Table S2, parameters of Eq. 1): 1.1365; – S of standards (physchem; Table S2): 2.4091
c1ccccc1 [benzene, reference compound] |  |  |  |  | logkw of standards (physchem; Table S2, parameters of Eq. 1): 2.2458; – S of standards (physchem; Table S2): 2.8691
Brc1ccccc1 [bromobenzene, reference compound] |  |  |  |  | logkw of standards (physchem; Table S2, parameters of Eq. 1): 3.0842; – S of standards (physchem; Table S2): 3.6630
CCc1ccccc1 [ethylbenzene, reference compound] |  |  |  |  | logkw of standards (physchem; Table S2, parameters of Eq. 1): 3.4018; – S of standards (physchem; Table S2): 3.8740; logkw of standards (physchem; [3]): 3.3754
c1ccc2ccccc2c1 [naphtalene, reference compound] |  |  |  |  | known logPo/w of standards [2]: 3.6; logkw of standards (physchem; Table S2, parameters of Eq. 1): 3.5779; – S of standards (physchem; Table S2): 4.2289; logkw of standards (physchem; [3]): 3.5502
Cc1ccccc1 [toluene, reference compound] |  |  |  |  | – S of standards (physchem; Table S2): 3.4400
